Experiment [1] concerns the target PBPb-I domain of CdgH (residues 46–250) (Vibrio cholerae, UniProt Q9KT38). Format: binding.
For experiment [2], the target named is LAOBP. The arrangement: method as in PMID 1400387. Conditions: cited from earlier work.

The structures appear in SMILES notation. Like-named read-outs stand apart in the source and are kept apart here.

The Kd is the concentration at which binding is half-saturated.

Sequence of PBPb-I domain of CdgH (residues 46–250) (Q9KT38 46-250 limits assumed): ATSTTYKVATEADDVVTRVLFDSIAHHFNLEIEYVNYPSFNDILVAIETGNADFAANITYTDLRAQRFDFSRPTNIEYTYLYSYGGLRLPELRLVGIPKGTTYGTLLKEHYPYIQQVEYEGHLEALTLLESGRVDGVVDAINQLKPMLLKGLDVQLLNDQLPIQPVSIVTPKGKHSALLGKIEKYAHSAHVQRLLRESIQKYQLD

With `N=C(N)NCCC[C@H](N)C(=O)O` [L-Arg, L-arginine], the ΔH in experiment [1] (pH 8) is -12.87 ± 0.04 kcal/mol. Further, in experiment [2], the Kd was 14 nM.

As for `NCCCC[C@H](N)C(=O)O` [L-Lys, L-lysine], the “binding affinity weaker than that with L-arginine” value in experiment [1] is “about 18 fold”. Further, the ΔH in experiment [1] (pH 8) was -6.02 ± 0.05 kcal/mol. In experiment [1] (pH 8), `NCCC[C@H](N)C(=O)O` [L-Orn, L-ornithine] came in with a Ka of 240000 ± 33700 M⁻¹ and a ΔH of -3.61 ± 0.08 kcal/mol. For the same compound, the Kd in experiment [1] (pH 8, read-out: Kd) amounted to 4170 nM.

For `NC(=O)CC[C@H](N)C(=O)O` [L-Gln, L-glutamine], in experiment [1] (pH 8), the ΔH is -3.57 ± 1.02 kcal/mol. On to `N[C@@H](CC(=O)O)C(=O)O` [L-aspartate], for which, in experiment [1] (pH 8), the Kd entry was “no measurable binding affinity”. Compound `N[C@@H](Cc1c[nH]cn1)C(=O)O` [L-His, L-histidine] displayed a ΔH in experiment [1] (pH 8) of -7.90 ± 0.28 kcal/mol.

The record behind these values is PMC5431781, “Structural studies of the periplasmic portion of the diguanylate cyclase CdgH from Vibrio cholerae” (Scientific Reports, 2017).
